Patent US7312212B2, “Aminopiperidine derivatives” (priority 2002, dated 2007)

experiment: MIC of test compounds against various organisms; type: cell-based; conditions: versus all of these organisms (S. epidermidis CL7, S. aureus WCUH29, S. pneumoniae 1629, S. pyogenes CN10, H. influenzae ATCC49247, E. faecalis 2, E. faecium 8, M. catarrhalis Ravisio, E. coli 7623)
Text: The MIC (μg/ml) of test compounds against various organisms may be determined:
S. epidermidis CL7, S. aureus WCUH29, S. pneumoniae 1629, S. pyogenes CN10, H. influenzae ATCC49247, E. faecalis 2, E. faecium 8, M. catarrhalis Ravisio, E. coli 7623.

SMILES | MIC [µg/mL]
COc1ccc2nccc([C@@H](O)CN3CCC(NCc4ccc5c(n4)NC(=O)CO5)C(F)C3)c2c1 (single isomer, unassigned) [Example 10] | ≤ 2
COc1ccc2nccc([C@@H](O)CN3CCC(NCc4ccc5c(n4)NC(=O)CO5)C(F)C3)c2n1 (single isomer, unassigned) [Example 20] | ≤ 2
COc1ccc2nccc([C@@H](O)CN3CCC(NCc4nc5c(cc4Cl)OCC(=O)N5)C(F)C3)c2n1 (single isomer, unassigned) [Example 24] | ≤ 2
COc1ccc2nccc([C@@H](O)CN3CCC(NCc4ccc5c(n4)NC(=O)CS5)C(F)C3)c2c1 (single isomer, unassigned) [Example 6] | ≤ 2
COc1cc(F)c2nccc([C@@H](O)CN3CCC(NCc4ccc5c(n4)NC(=O)CS5)C(F)C3)c2c1 (single isomer, unassigned) [Example 27] | ≤ 2
COc1cc(F)c2nccc([C@@H](O)CN3CCC(NCc4ccc5c(n4)NC(=O)CO5)C(F)C3)c2c1 (single isomer, unassigned) [Example 26] | ≤ 2

same assay, conditions: versus some of these organisms (panel of b704; which ones not stated)

SMILES | MIC [µg/mL]
COc1ccc2nccc([C@@H](O)CN3CC[C@@H](NCc4ccc5c(n4)NC(=O)CS5)C[C@H]3C(F)(F)F)c2n1 [Example 37] | ≤ 16
